Results published in patent EP0178388A1, “Quinolinecarboxylic acid derivatives” (KYORIN PHARMACEUTICAL CO., LTD., priority 1984, dated 1986).
Converted amounts (≈) assume the structure as drawn. Where a name gives a salt, the structure may show the parent alone. Read-outs that look alike come from different tables or passages of the source.

Key:
Assay type in all cases: cell-based
[1] = system: Streptococcus pyogenes S-8; assay: In vitro antibacterial activity, MIC (standard strain); settings: S8, Streptococcus pyogenes S-8, 10^6 cells/ml
S. pyogenes 3107 = assay: In vitro antibacterial activity, MIC (clinical isolates); settings: Streptococcus pyogenes; S. pyogenes 3107, 10^6 cells/ml, clinical isolate
S. agalactiae 4049 = assay: as above; settings: Streptococcus agalactiae; S. agalactiae 4049, 10^6 cells/ml, clinical isolate
S. faecalis 402 = assay: as above; settings: Enterococcus faecalis; S. faecalis 402, 10^6 cells/ml, clinical isolate
[2] = system: Proteus vulgaris IFO 3167; assay: In vitro antibacterial activity, MIC (standard strain); settings: Proteus vulgaris, IFO3167
[3] = system: Citrobacter freundii IID 976; assay: as above; settings: IID976
E. coli ATCC 10536 = assay: as above; settings: Escherichia coli, ATCC10536
B. fragilis 0558 = assay: as above; settings: Bacteroides fragilis; B. fragilis 0558, 10^6 cells/ml, standard strain; read-out: MIC
S. agalactiae 4470 = assay: In vitro antibacterial activity, MIC (clinical isolates); settings: Streptococcus agalactiae; S. agalactiae 4470, 10^6 cells/ml, clinical isolate
P. mirabilis IID 994 = assay: In vitro antibacterial activity, MIC (standard strain); settings: Proteus mirabilis, IID994, P. mirabilis IID 994, 10^6 cells/ml
[4] = system: C. perfringens KYA (ATCC) 13123; assay: microbe, parasite or virus in culture; settings: Clostridium perfringens
Shigella sonnei IID 969 = assay: In vitro antibacterial activity, MIC (standard strain); settings: IID969, Shigella sonnei IID 969, 10^6 cells/ml
Experimental: The in vitro antibacterial activity has been investigated, the minimun inhibitory concentration (MIC) was determined in accordance with the method recommended by Japan Society of Chemotherapy.

S. pyogenes 4340 = assay: In vitro antibacterial activity, MIC (clinical isolates); settings: Streptococcus pyogenes; S. pyogenes 4340, 10^6 cells/ml, clinical isolate
S. pneumoniae 2950 = assay: as above; settings: Streptococcus pneumoniae; S. pneumoniae 2950, 10^6 cells/ml, clinical isolate
P. aeruginosa IFO 12689 = assay: In vitro antibacterial activity, MIC (standard strain); settings: Pseudomonas aeruginosa, IFO12689, P. aeruginosa IFO 12689, 10^6 cells/ml, standard strain; read-out: MIC
S. faecalis 214 = assay: In vitro antibacterial activity, MIC (clinical isolates); settings: Enterococcus faecalis; S. faecalis 214, 10^6 cells/ml, clinical isolate
S. faecalis 49 = assay: as above; settings: Enterococcus faecalis; S. faecalis 49, 10^6 cells/ml, clinical isolate
S. faecalis 401 = assay: as above; settings: Enterococcus faecalis; S. faecalis 401, 10^6 cells/ml, clinical isolate
[5] = system: Alcaligenes faecalis 0114002; assay: In vitro antibacterial activity, MIC (standard strain); settings: Alcaligenes faecalis 0114002, 10^6 cells/ml
K. pneumoniae KY(GN)6445 = assay: as above; settings: Klebsiella pneumoniae
[6] = system: Yersinia enterocolitica IID 981; assay: as above; settings: IID981; Yersinia enterocolitica IID 981, 10^6 cells/ml, standard strain; read-out: MIC
[7] = system: Clostridium difficile I-E; assay: as above; settings: Clostridioides difficile, 10^6 cells/ml
S. pyogenes 3102 = assay: In vitro antibacterial activity, MIC (clinical isolates); settings: Streptococcus pyogenes; S. pyogenes 3102, 10^6 cells/ml, clinical isolate
[8] = system: Klebsiella pneumoniae I-220S; assay: In vitro antibacterial activity, MIC (standard strain); settings: I220S; Klebsiella pneumoniae I-220S, 10^6 cells/ml, standard strain; read-out: MIC
S. faecalis IID 682 = assay: as above; settings: Enterococcus faecalis, IID682, S. faecalis IID 682, 10^6 cells/ml
S. pyogenes 3130 = assay: In vitro antibacterial activity, MIC (clinical isolates); settings: Streptococcus pyogenes; S. pyogenes 3130, 10^6 cells/ml, clinical isolate
[9] = system: Bacteroides fragilis GM 7000; assay: In vitro antibacterial activity, MIC (standard strain); settings: GM7000; Bacteroides fragilis GM 7000, 10^6 cells/ml, standard strain; read-out: MIC
[10] = system: Escherichia coli NIHJ JC-2; assay: as above; settings: NIHJJC2, Escherichia coli NIHJ JC-2, 10^6 cells/ml
S. agalactiae 4368 = assay: In vitro antibacterial activity, MIC (clinical isolates); settings: Streptococcus agalactiae; S. agalactiae 4368, 10^6 cells/ml, clinical isolate
S. agalactiae 4394 = assay: as above; settings: Streptococcus agalactiae; S. agalactiae 4394, 10^6 cells/ml, clinical isolate
S. agalactiae 4468 = assay: as above; settings: Streptococcus agalactiae; S. agalactiae 4468, 10^6 cells/ml, clinical isolate
S. pyogenes IID 692 = assay: In vitro antibacterial activity, MIC (standard strain); settings: Streptococcus pyogenes, IID692, S. pyogenes IID 692, 10^6 cells/ml
[11] = system: B. thetaiotaomicron (0661); assay: as above; settings: Bacteroides thetaiotaomicron; B. thetaiotaomicron (0661), 10^6 cells/ml, standard strain; read-out: MIC
S. pneumoniae 15 = assay: In vitro antibacterial activity, MIC (clinical isolates); settings: Streptococcus pneumoniae; S. pneumoniae 15, 10^6 cells/ml, clinical isolate

Structure (SMILES)	MIC [1] [µg/mL]	MIC (S. pyogenes 3107) [µg/mL]	MIC (S. agalactiae 4049) [µg/mL]	MIC (S. faecalis 402) [µg/mL]	MIC [2] [µg/mL]	MIC (B. fragilis 0558) [µg/mL]	MIC (S. agalactiae 4470) [µg/mL]	MIC (P. mirabilis IID 994) [µg/mL]	MIC [4] [µg/mL]	MIC (Shigella sonnei IID 969) [µg/mL]	MIC (S. pyogenes 4340) [µg/mL]	MIC (S. pneumoniae 2950) [µg/mL]	MIC (P. aeruginosa IFO 12689) [µg/mL]	MIC (S. faecalis 214) [µg/mL]	MIC (S. faecalis 49) [µg/mL]	MIC (S. faecalis 401) [µg/mL]	MIC [5] [µg/mL]	MIC [6] [µg/mL]	MIC [7] [µg/mL]	MIC (S. pyogenes 3102) [µg/mL]	further results
CC1CN(c2c(F)cc3c(=O)c(C(=O)O)cn(C4CC4)c3c2Cl)CCN1 (stereo not drawn) [Example 5, 8-Chloro-l-cyclopropyl-6-fluoro-1,4-dihydro-7-(3-methyl-1-piperazinyl)-4-oxoquinoline-3-carboxylic acid hydrochloride]	0.39	0.39	0.78	0.78	0.0125	0.2	0.78	0.025	0.78	0.0125	0.39	0.78	1.56	0.78	0.78	0.78	0.39	0.05	3.13	0.39	MIC ([3]; Citrobacter freundii IID 976, 10^6 cells/ml, standard strain, read-out: MIC): 0.025 µg/mL; MIC (E. coli ATCC 10536): 0.0125 µg/mL; MIC (K. pneumoniae KY(GN)6445; K. pneumoniae KY(GN)6445, 10^6 cells/ml, standard strain, read-out: MIC): 0.025 µg/mL; MIC [8]: 0.05 µg/mL; MIC (S. faecalis IID 682): 0.39 µg/mL; MIC (S. pyogenes 3130): 0.39 µg/mL; MIC [9]: 0.39 µg/mL; MIC [10]: ≤ 0.006 µg/mL; MIC (S. agalactiae 4368): 0.39 µg/mL; MIC (S. agalactiae 4394): 0.78 µg/mL; MIC (S. agalactiae 4468): 0.39 µg/mL; MIC (S. pyogenes IID 692): 0.78 µg/mL; MIC [11]: 1.56 µg/mL; MIC (S. pneumoniae 15): 0.78 µg/mL
CC1CN(c2c(F)cc3c(=O)c(C(=O)O)cn(C4CC4)c3c2F)CCN1 (stereo not drawn) [Example 2, l-Cyclopropyl-6,8-difluoro-l,4-dihydro-7-(3-methyl-l-piperazinyl)-4-oxoquinoline-3-carboxylic acid]	0.78 (≈ 2.15 µM)	0.78 (≈ 2.15 µM)	1.56 (≈ 4.29 µM)	1.56 (≈ 4.29 µM)	0.0125 (≈ 0.0344 µM)	0.78 (≈ 2.15 µM)	0.78 (≈ 2.15 µM)	0.025 (≈ 0.0688 µM)	0.78 (≈ 2.15 µM)	0.0125 (≈ 0.0344 µM)	0.78 (≈ 2.15 µM)	1.56 (≈ 4.29 µM)	0.78 (≈ 2.15 µM)	0.78 (≈ 2.15 µM)	0.78 (≈ 2.15 µM)	1.56 (≈ 4.29 µM)	0.2 (≈ 0.55 µM)	0.05 (≈ 0.138 µM)	6.25 (≈ 17.2 µM)	0.78 (≈ 2.15 µM)	MIC ([3]; Citrobacter freundii): 0.0125 µg/mL (≈ 0.0344 µM); MIC (E. coli ATCC 10536; E. coli ATCC 10536, 10^6 cells/ml, standard strain, read-out: MIC): ≤ 0.006 µg/mL; MIC (K. pneumoniae KY(GN)6445): 0.0125 µg/mL (≈ 0.0344 µM); MIC [8]: 0.05 µg/mL (≈ 0.138 µM); MIC (S. faecalis IID 682): 0.78 µg/mL (≈ 2.15 µM); MIC (S. pyogenes 3130): 0.78 µg/mL (≈ 2.15 µM); MIC [9]: 1.56 µg/mL (≈ 4.29 µM); MIC [10]: ≤ 0.006 µg/mL; MIC (S. agalactiae 4368): 0.78 µg/mL (≈ 2.15 µM); MIC (S. agalactiae 4394): 1.56 µg/mL (≈ 4.29 µM); MIC (S. agalactiae 4468): 0.78 µg/mL (≈ 2.15 µM); MIC (S. pyogenes IID 692): 0.78 µg/mL (≈ 2.15 µM); MIC [11]: 3.13 µg/mL (≈ 8.61 µM); MIC (S. pneumoniae 15): 0.78 µg/mL (≈ 2.15 µM)
